Data: patent US10828312B2, “Lithium cholesterol compositions, including, but not limited to lithium cholesterol sulfate compositions, and methods of treatment for Alzheimer's disease and neurological disorders” (priority 2018, dated 2020)
Entries after “also recorded” stand apart in the source; their conditions may differ. Where a name gives a salt, the structure may show the parent alone. Read-outs that look alike come from different tables or passages of the source.

Columns and labels:
[1] = rats; cited from earlier work
[2] = tested on: GSK3β (Ser9) phosphorylation; test: Inhibitory GSK3β (Ser9) phosphorylation by Western blot in CHO cells; format: cell-based, Chinese Hamster; details: for maximal increase of pGSK3β: 18 h, vs no treatment; for concentration at which increase of pGSK3β starts: 18 h treatment, WB densitometry
Method: (§1) Human neuroblastoma SH-SY5Y cells (ATCC, Manassas, Va.) were cultured in DMEM/Nutrient Mixture F-12 (DMEM/F-12), 10% fetal bovine serum (FBS) and 15 mM HEPES. Chinese Hamster Ovary cells (CHO, Millipore Sigma), human embryonic kidney 293 cells expressing wild-type tau (HEK293/tau cells, ATCC) and mouse BV2 microglial cells (Creative Bioarray, Shirley, N.Y.) were cultured in DMEM with 10% FBS. SH-SY5Y cells and CHO cells were cultured in 24-well plates at a density of 2.5×10^5 cells/well. HEK293/tau cells were cultured in 24-well plates at a density of 3.5×10^5 cells/well, after being treated with Tetracycline (1:1000) for about 24 h to create high and stable cells lines (24).
(§2) Cells were treated with LiCS or NaCS at 0, 5, 10, 20, 40, 60 or 90 μM or LiCl at 0, 0.06, 0.15, 0.3, 0.6, 1.2 and 2.5 mM for 18 hours, followed by washing with ice-cold PBS 3×, lysis with cell lysis buffer and centrifugation at 1.4×10^4 rpm for 20 minutes. The supernatants were then used for analysis of GSK3β (Ser) and tau (Thr^231) phosphorylation by Western Blot (WB) and WB bands were calculated by Image J software (Java 1.6.0_20, NIH, USA).

LPS-induced TNFα = format: cell-based, mouse; details: for concentration at which decrease of LPS-induced TNFα starts: LPS 100 ng/ml, 3 h
[3] = tested on: tau (Thr231) phosphorylation; test: Tau (Thr231) phosphorylation by Western blot in HEK293/tau cells; format: cell-based, human; details: for effect on total tau levels: any dose
Method: as §1, §2

[4] = tested on: GSK3β (Ser9) phosphorylation; test: Inhibitory GSK3β (Ser9) phosphorylation by Western blot in SH-SY5Y cells; format: cell-based, Human; details: for maximal increase of pGSK3β: 18 h; for concentration at which increase of pGSK3β starts: 18 h treatment, WB densitometry
Method: as §1, §2

[5] = Lithium levels in blood plasma, brain, kidney and liver of mice after oral gavage (lithium ELISA); format: in vivo, C57BL/6J male mice
Method: C57BL/6J male mice at 4 months of age were treated with LiCl or LiCS at 0.04 mmol lithium/mouse p.o by gavage, followed by determination of lithium levels in blood plasma, brain, kidney and liver at 0.5, 1, 2, 3, 5 and 24 h after gavage by ELISA (N=2 mice/time point).
At 0.5, 1, 2, 3, 5 and 24 h after treating mice with LiCl or LiCS p.o. by gavage, mice were anesthetized with isoflourane (50 mg/kg) (Sigma-Aldrich), euthanized by bilateral thoracotomy, and blood was collected. Brain, kidney, and liver were harvested, homogenized in 400 μL ddH2O with Minilys tissue homogenizer (Bertin Technologies, Montigny-le-Bretonneux, France), and centrifuged for 30 min. Lithium levels in plasma and supematants from brain, kidney, and liver homogenates were determined by ELISA (Biovision, Milpitas, Calif.) following the manufacturer's instructions. Plasma, brain, kidney and liver homogenates from control mice were used to generate standard curve.

[6] = tested on: GSK3β (Ser9) phosphorylation; test: Inhibitory GSK3β (Ser9) phosphorylation and total GSK3β by Western blot, statements covering both CHO and SH-SY5Y cells; format: cell-based; details: for effect on total GSK3β levels: any dose; for concentration at which increase of pGSK3β starts / maximal increase of pGSK3β: both CHO and SH-SY5Y cells (summary)
Method: as §1, §2

[7] = mice; cited from earlier work
[8] = rats; cited from earlier work; remark: listed apart in the source
AD pathology = details: cited from earlier work
autistic features = details: 2 mmol/kg i.p./day, Sprague-Dawley rats; cited from earlier work
[9] = all liposomes tested; cited from earlier work
[10] = 0.04 mmol lithium/mouse p.o., 0.5 and 5 h after gavage
[11] = long term oral administration, Tg2576 and 3XTg AD mice
[12] = NaCS at any dose between 5 and 90 μM, sulfate

In the case of `O=C([O-])c1ccccc1O.[Li+]` [lithium salicylate], the “plasma lithium levels and elimination compared with lithium lactate” value [1] is given as “longer elevated plasma lithium levels with a slower elimination process”.
With `CC(C)CCC[C@@H](C)[C@H]1CC[C@H]2[C@@H]3CC=C4C[C@@H](OS(=O)(=O)[O-])CC[C@]4(C)[C@H]3CC[C@]12C.[Li+]` [LiCS, lithium cholesterol sulfate] the “maximal increase of pGSK3β” value ([2]; LiCS at 60 μM) was 92%, the “concentration at which increase of pGSK3β starts” value (“concentration at which increase” for short) [2] was 10 μM and the “effectiveness compared with LiCl in reducing microglial LPS-induced TNFα production” value (LPS-induced TNFα; BV2 cells) was “more effective than LiCl”. The “potency relative to LiCl for reducing LPS-induced TNFα production” value (LPS-induced TNFα; BV2 cells) was “approximately 250 fold”, the “concentration at which decrease of LPS-induced TNFα starts” value (LPS-induced TNFα; BV2 cells) was 20 µM and the “concentration levels at which tau (Thr231) phosphorylation is reduced” value ([3]; HEK293/tau cells) was “at micromolar levels”. The “concentration at which decrease of ptau (Thr231) starts” value ([3]; HEK293/tau cells, 18 h) was 10 µM, the “maximal decrease of ptau (Thr231)” value ([3]; HEK293/tau cells, 18 h, LiCS at 40 μM) was 63% and the “effect on total tau levels” value ([3]; 18 h, listed as UCS, sulfate) was “without altering”. The “effect on total tau levels” value ([3]; 18 h, sulfate) was “neither LiCS, NaCS nor LiCl at any dose altered”, the “maximal increase of pGSK3β” value ([4]; LiCS at 90 μM) was 90% and the “concentration at which increase” value [4] was 10 μM. The “lithium levels in the liver” value [5, 10] was “failed to increase at any time”, the “lithium levels in the kidney” value ([5]; 0.04 mmol lithium/mouse p.o., 0.5 and 5 h after gavage, listed as UCS, sulfate) was “LiCl but not UCS treatment markedly increases” and the “lithium levels in the kidney” value ([5]; 0.04 mmol lithium/mouse p.o., 0.5 and 5 h after gavage, sulfate) was “failed to increase at any time”. The “lithium blood levels compared with LiCl oral treatment” value ([5]; oral treatment, mice) was “more stable and last longer”, the “crossing of the blood-brain barrier” value ([5]; oral treatment, mice, compared with LiCl) was “more readily crosses the blood-brain barrier” and the “extent of pGSK3β increase at 60 μM” value [6] was “maximally”. The “concentration levels at which pGSK3β increased” value ([6]; CHO and SH-SY5Y cells) was “low micromolar levels”, the “potency relative to LiCl in increasing inhibitory GSK3β (Ser9) phosphorylation” value ([6]; CHO and SH-SY5Y cells) was 21-28 fold and the “effect on total GSK3β levels” value ([6]; 18 h, CHO and SH-SY5Y cells, sulfate) was “without altering; also recorded: neither LiCS, LiCl nor NaCS altered”. The “potency compared with LiCl in increasing inhibitory GSK3β (Ser9) phosphorylation” value ([6]; both CHO and SH-SY5Y cells) was “more potent than LiCl”, the “concentration at which increase” value [6] was 10 μM and the “maximal increase of pGSK3β” value ([6]; LiCS at 60 μM) was “approximately 100%”.
For `O=C(O)[C@@H]1CCCN1.O=C([O-])c1ccccc1O.[Li+]` [LISPRO], the “brain lithium levels compared with lithium carbonate or lithium salicylate” value [7] is given as “significantly higher brain lithium levels”, the “plasma lithium levels compared with lithium carbonate or lithium salicylate” value [7] is given as “more steady plasma lithium levels” and the “brain lithium levels compared with lithium carbonate or lithium salicylate” value [8] is given as “significantly higher brain lithium levels”. The “plasma lithium levels compared with lithium carbonate or lithium salicylate” value [8] was “more steady plasma lithium levels”, the AD-related behavioral impairment (AD pathology; AD mouse models) was “reduced AD-related behavioral impairment” and the “AD pathology (β-amyloid plaques, tau hyperphosphorylation, neuroinflammation, neuronal and synaptic protein loss, GSK3β activity)” value (AD pathology; [11]) was “reduced AD pathology”. The renal inflammation (AD pathology; [11]) was “without eliciting renal inflammation”.
In the case of `[Cl-].[Li+]` [LiCl, lithium chloride], the “maximal increase of pGSK3β” value ([2]; LiCl at 1.25 mM) is reported as 91%, the “concentration at which increase” value [2] is reported as 160 μM and the “concentration at which decrease of LPS-induced TNFα starts” value (LPS-induced TNFα; BV2 cells) is reported as 5000 µM. For the same molecule, the “autistic features (social interaction deficit, repetitive self-grooming, anxiety, depression)” value (autistic features) was “reversed autistic features”, the “effect on ptau (Thr231)” value ([3]; LiCl at any dose between 60 μM and 1.25 mM, 18 h) was “not altered; also recorded: neither LiCl at any dose between 60 μM and 1.25 mM nor NaCS at any dose between 5 and 60 μM altered ptau; also recorded: ineffective even at millimolar levels; also recorded: failed to alter” and the “effect on total tau levels” value ([3]; 18 h) was “neither LiCS, NaCS nor LiCl at any dose altered”. The “maximal increase of pGSK3β” value ([4]; LiCl at 2.5 mM) was 119%, the “concentration at which increase” value [4] was 60 μM and the “lithium levels in the brain” value [5, 10] was “increased at 5 h”. For the same molecule, the “lithium levels in the kidney” value [5, 10] was “increased at 0.5 and 5 h; also recorded: markedly increases”, the “lithium levels in the liver” value [5, 10] was “failed to increase at any time” and the “extent of pGSK3β increase at 60 μM” value [6] was “minimally”. For the same molecule, the “concentration levels at which pGSK3β increased” value ([6]; CHO and SH-SY5Y cells) was “high micromolar and low millimoloar levels”, the “effect on total GSK3β levels” value ([6]; 18 h, CHO and SH-SY5Y cells) was “without altering; also recorded: neither LiCS, LiCl nor NaCS altered” and the “concentration at which increase” value [6] was 60 μM. For the same molecule, the “maximal increase of pGSK3β” value ([6]; LiCl at 1.25 mM) was “approximately 100%”.
With `CC(C)CCC[C@@H](C)[C@H]1CC[C@H]2[C@@H]3CC=C4C[C@@H](OS(=O)(=O)[O-])CC[C@]4(C)[C@H]3CC[C@]12C.[Na+]` [NaCS, sodium cholesterol sulfate] the “effect on LPS-induced TNFα level” value (LPS-induced TNFα; NaCS at any concentration between 20 and 80 μM) was “not altered”, the “effect on LPS-induced TNFα level” value (LPS-induced TNFα; [12]) was “did not alter; also recorded: failed to alter” and the “effect on ptau (Thr231)” value ([3]; NaCS at any dose between 5 and 60 μM, 18 h, sulfate) was “neither LiCl at any dose between 60 μM and 1.25 mM nor NaCS at any dose between 5 and 60 μM altered ptau”. For the same molecule, the “effect on ptau (Thr231)” value [3, 12] was “did not alter; also recorded: failed to alter”, the “effect on total tau levels” value ([3]; 18 h, sulfate) was “neither LiCS, NaCS nor LiCl at any dose altered” and the “effect on pGSK3β” value ([6]; NaCS at 5-90 μM, 18 h, CHO and SH-SY5Y cells, sulfate) was “did not alter; also recorded: failed to alter”. The “effect on total GSK3β levels” value ([6]; 18 h, CHO and SH-SY5Y cells) was “neither LiCS, LiCl nor NaCS altered”.
For `CC(C)CCC[C@@H](C)[C@H]1CC[C@H]2[C@@H]3CC=C4C[C@@H](OS(=O)(=O)O)CC[C@]4(C)[C@H]3CC[C@]12C` [cholesterol sulfate], the “rate of intermembrane exchange relative to cholesterol” value [9] is given as “approximately 10 fold”.
